We go through three compounds from paper PMC9870305, “Efficacy of ultra-short, response-guided sofosbuvir and daclatasvir therapy for hepatitis C in a single-arm mechanistic pilot study” (eLife, 2023).

Where two headings read alike, the source gives them in different places.

Data set [1] is described as follows: Plasma pharmacokinetics, naïve pooled non-compartmental analysis (days 0 and 28). It is filed as in vivo, human. Set-up: AUClast / AUC(0-t) / AUCINF / AUC(0-inf): concentration or dose not given beside the values. Conditions: for AUCINF / AUC(0-inf): extrapolated to infinity; for AUClast / AUC(0-t): to 8 hours for SOF, 24 hours for GS-331007 and DCV; for drug accumulation: between day 0 and 28; for half-life: read-out: t1/2, terminal elimination half-life (converted); for AUC(0-inf): po. On the procedure:
(§1) In addition, intensive drug level sampling was conducted in a subset of 40 participants, who were sequentially invited to join an ancillary PK study. In this subgroup, five samples were collected in each participant after the first dose of SOF/DCV and at day 28, according to one of two randomly assigned sampling schedules (A and B). In sampling schedule A, drug levels were measured at 0.5-, 2-, 4-, 6- and 24-hr post-dose; in sampling schedule B, drug levels were measured at 1-, 3-, 5-, 8- and 24-hr post-dose.
(§2) Drug quantification was performed using liquid chromatography-tandem mass spectrometer at Mahidol Oxford Tropical Medicine Research Unit, Bangkok. Two separate analytical assays were developed and validated to quantify SOF plus its metabolite GS-331007, and DCV, respectively. Full methodological details of the PK/PD analysis are provided in Appendix 1.
Intensive drug levels of SOF, its metabolite GS-331007, and DCV from the subset of 40 patients at days 0 and 28, together with any EOT samples at day 28, were analysed using non-compartmental analysis in PKanalix version 2020R1 ([Lixoft, 2022]). Two separate analyses were performed to characterise the pharmacokinetic properties of the study drugs.
In the first, naïve pooled analyses were performed separately on data from days 0 and 28 (not including EOT samples) to derive median pharmacokinetic parameters at each day. In these analyses, the median concentration at each protocol time was calculated. Individual concentration measurements below the LLOQ were set to LLOQ/2 when calculating the median values. It was assumed that the participants had no drug concentrations at time 0.
Sofosbuvir and GS-331007 were extracted from 100 µL of plasma using phospholipid removal in the 96-well plate format (Phree, 8E-S133-TGB, Phenomenex), followed by separation on a Gemini, 50 mm × 2.0 mm I.D. 5 µm, column (00B-4435-B0, Phenomenex). Quantification was performed using selected reaction monitoring for the transitions m/z 530.2–>243.2 (sofosbuvir), 536.2–>243.1 (isotope-labelled internal standard for sofosbuvir), 261.3–>113.1 (GS-331007), and 265.3–>113.1 (isotope-labelled internal standard for GS-331007).
The lower limit of quantification (LLOQ) was set to 1.95 ng/mL for sofosbuvir and 20.5 ng/mL for GS-331007. A total of 9 quality control samples (3×low, 3×mid and 3×high concentration) were analysed for each analyte within each batch of clinical samples (96-well plate), resulting in an accuracy of 2.81–2.93% RSE for sofosbuvir and 2.19–3.50% RSE for GS-331007.
DCV was extracted from 100 µL of plasma using supported liquid extraction in the 96-well plate format (ISOLUTE SLE +96 well plate, 820–0200 P01, Biotage), followed by separation on a Gemini, 50 mm × 2.0 mm I.D. 5 µm, column (00B-4435-B0, Phenomenex). Quantification was performed using selected reaction monitoring for the transitions m/z 739.5–>339.3 (DCV) and 747.5–>339.3 (isotope-labelled internal standard for DCV). The LLOQ was set to 1.64 ng/mL for DCV. A total of 9 quality control samples (3×low, 3×mid and 3×high concentration) were analysed within each batch of clinical samples (96-well plate), resulting in an accuracy of 2.46–2.62% RSE for DCV.
Maximum concentration (Cmax) and time to reach maximum concentration (tmax) were derived directly from the observed drug concentrations. The software’s automatic slope calculator was used to derive the elimination rate (λ) (adjusted R2 value with uniform weighting) and terminal elimination half-life (t1/2). The drug exposure measured as area under the concentration-time curve (AUC) was calculated for each drug using the trapezoidal method. Linear interpolation was used for acceding concentrations and log-linear interpolation for descending concentrations. For the individual analysis, the linear method was used for all measurements due to accumulation between the day 0 and day 28 measurements. […]

The conditions of data set [2]: cited from earlier work; for dose proportionality of AUC: dose range of 200–1200 mg, ref Smolders et al., 2019.
Data set [3] can be described thus: Plasma drug exposure, individual non-compartmental analysis (days 0 and 28 pooled). It is filed as in vivo, human. Set-up: AUC(0-t) / AUClast: concentration or dose not given beside the values. The conditions noted are these: median (5th-95th percentile); for AUC(0-t): human. The method, then: as §1, §2
In the second analysis, data from days 0 and 28 were pooled for each individual. […] The mean value of drug concentrations was used if patients had two or more samples taken at the same time point. These derived individual drug exposures were used to evaluate the relationship between drug exposure and therapeutic outcome. It was assumed that the participants had no drug concentrations at time 0. In this analysis, the first measurement below LLOQ in a series of LLOQ samples was imputed as LLOQ/2 and the later measurements were ignored. In both approaches, SOF samples taken at ≥24 hr post-dose were excluded. […] In addition, outcome variables and the relationship between outcome variables and drug exposure were evaluated. Additional detail of the PK/PD analysis is provided in Appendix 1.
Maximum concentration (Cmax) and time to reach maximum concentration (tmax) were derived directly from the observed drug concentrations. The software’s automatic slope calculator was used to derive the elimination rate (λ) (adjusted R2 value with uniform weighting) and terminal elimination half-life (t1/2). The drug exposure measured as area under the concentration-time curve (AUC) was calculated for each drug using the trapezoidal method. Linear interpolation was used for acceding concentrations and log-linear interpolation for descending concentrations. For the individual analysis, the linear method was used for all measurements due to accumulation between the day 0 and day 28 measurements. Both the AUC to the last time point (AUClast, 8 hours for SOF and 24 hours for GS-331007 and DCV) and AUC to infinity (AUCinf) were calculated.
Two different sampling schedules were used to collect pharmacokinetic samples on day 0 and day 28, resulting in an overlapping sampling profile overall. Therefore, data collected within an individual on a specific day was not dense enough to justify a non-compartment analysis. […] Two separate pharmacokinetic analyses were carried out. A naïve-pooled analysis was performed separately conducted on day 0 and 28 data. […] Therefore, a second analysis was performed in which the data from day 0 and 28 were pooled for each individual. […] However, the individual analysis should still generate median exposure values for each patient, which can be linked with treatment outcome. Another drawback is that no pre-dose samples were collected.

Setting [4] is: individual analysis, all patients (n=37).

Take `C[C@@]1(F)[C@H](O)[C@@H](CO)O[C@H]1n1ccc(=O)[nH]c1=O` [GS-331007]: the “t1/2, terminal elimination half-life” value in data set [1] (Day 0) was determined as 9.20 h; in data set [1] (Day 28), 12.4 h. Besides, the tmax is given as 3.00 h in data set [1] (Day 0) and 4.00 h in data set [1] (Day 28). The Cmax in data set [1] (Day 0, plasma, oral SOF 400 mg + DCV 60 mg) is listed as 988 ng/mL; in data set [1] (Day 28, plasma), 1,230 ng/mL. Further, the values for the AUCINF in data set [1] (Day 0) and in data set [1] (Day 28) were 12,700 h×ng/mL and 20,400 h×ng/mL, respectively. The AUClast is recorded as 10,500 h×ng/mL in data set [1] (Day 0), 14,600 h×ng/mL in data set [1] (Day 28) and 3,430 (2,200-4,720) h×ng/mL in data set [3] (setting [4]). Moreover, in data set [1], the drug accumulation result is “Drug accumulation was observed”. Moreover, the “dose proportionality of AUC” value in data set [2] is recorded as “near dose proportional”. The “Median AUClast” value in data set [3] (4-week cures (n=15)) was 11,700 (8420–14,100) h×ng/ml; in data set [3] (4-week failures (n=8)), 15,100 (9240–19,700) h×ng/ml; in data set [3] (8-week cures (n=14)), 14,000 (10,200–17,400) h×ng/ml.
On to `COC(=O)N[C@H](C(=O)N1CCC[C@H]1c1nc(-c2ccc(-c3ccc(-c4c[nH]c([C@@H]5CCCN5C(=O)[C@@H](NC(=O)OC)C(C)C)n4)cc3)cc2)c[nH]1)C(C)C` [Daclatasvir, daclatasvir], for which the drug accumulation result in data set [1] was “Drug accumulation was observed”. Moreover, the Cmax in data set [1] (human, oral, Day 28, plasma, read-out: Cmax) worked out at 1110 ng/mL; in data set [1] (human, Day 0, plasma, oral SOF 400 mg + DCV 60 mg, read-out: Cmax), 1170 ng/mL. For the same compound, the AUC(0-t) stood at 11400 ng·h/mL in data set [1] (human, plasma, oral, Day 0); 12400 ng·h/mL in data set [1] (human, plasma, oral, Day 28); 13000 ng·h/mL in data set [3] (plasma, oral, 4-week cures (n=15), read-out: Median AUClast); 13200 ng·h/mL in data set [3] (plasma, oral, 4-week failures (n=8), read-out: Median AUClast); 14200 ng·h/mL in data set [3] (plasma, oral, 8-week cures (n=14), read-out: Median AUClast); 9770 ng·h/mL in data set [3] (plasma, oral, individual analysis, all patients (n=37), read-out: AUClast). Moreover, the half-life in data set [1] (human, plasma, oral, Day 28) is 8.18 h; in data set [1] (human, plasma, oral, Day 0), 7.31 h. For the same compound, the tmax in data set [1] (human, plasma, oral, Day 0, read-out: tmax) came to 3 h. Besides, the AUC(0-inf) was 12800 ng·h/mL in data set [1] (human, plasma, Day 0) and 14400 ng·h/mL in data set [1] (human, plasma, Day 28).
In data set [1] (Day 0), `CC(C)OC(=O)[C@H](C)N[P@](=O)(OC[C@H]1O[C@@H](n2ccc(=O)[nH]c2=O)[C@](C)(F)[C@@H]1O)Oc1ccccc1` [Sofosbuvir, sofosbuvir] returned a tmax of 1.00 h. In addition, the half-life in data set [1] (human, in vivo, Day 0) is 0.67 h; in data set [1] (human, in vivo, Day 28), 0.65 h; in data set [2] (ref de Kanter et al., 2014), “less than 1 hr”. In addition, the AUC(0-t) in data set [1] (human, in vivo, Day 0) is 1550 ng·h/mL; in data set [1] (human, in vivo, Day 28), 1600 ng·h/mL; in data set [3] (in vivo, 4-week cures (n=15), read-out: Median AUClast), 2360 ng·h/mL; in data set [3] (in vivo, 4-week failures (n=8), read-out: Median AUClast), 2220 ng·h/mL; in data set [3] (in vivo, 8-week cures (n=14), read-out: Median AUClast), 2120 ng·h/mL. The area under the curve AUC(0-inf) was 1550 ng·h/mL in data set [1] (human, in vivo, Day 0) and 1600 ng·h/mL in data set [1] (human, in vivo, Day 28). Also, the Cmax in data set [1] (human, in vivo, Day 0, plasma, oral SOF 400 mg + DCV 60 mg, read-out: Cmax) is 1320 ng/mL; in data set [1] (human, in vivo, Day 28, plasma, read-out: Cmax), 1070 ng/mL. The “dose proportionality of AUC” value in data set [2] is on record as “near dose proportional”. Moreover, the AUClast in data set [3] (setting [4]) is 1,140 (598-2,150) h×ng/mL.

One may read the Cmax as the maximum level reached in the sampled fluid or tissue. The AUC(0-inf) is the area under the concentration-time curve extrapolated to infinity.
